Experimental findings from patent US5849259A, “3-,8-substituted deuteroporphyrin derivatives, pharmaceutical agents containing the latter and process for their production” (priority 1992, dated 1998) are described below.

This series is described as follows: Tissue concentrations by ICP-AES after 0.1 mmol/kg i.v. in nude mice with subcutaneously implanted colon cancers (HT29, WiDr). It counts as in vivo, nude mice (Balb/c nu/nu). The procedure:
a) 9 nude mice (Balb/c nu/nu) with subcutaneously implanted colon cancers (HT29, WiDr) were each administered by i.v. 0.1 mmol/kg of the mesoporphyrin derivative of example 1b (10 mmol/l dissolved in bidistilled water, pH 7.2, 37° C.). After 0.5, 3 and 24 hours the animals were killed and dissected. The tissue concentrations were determined after corresponding working-up (HNO3 conc.) by ICP-AES and calculated for % of the administered dose per gram of tissue net weight.
e) 9 nude mice (Balb/c nu/nu) with subcutaneously implanted colon cancers (HT29 and WiDr) were each administered by i.v. 0.1 mmol/kg of the deuteroporphyrin derivative of the compound according to example 1c (10 mmol/l dissolved in bidistilled water, pH 7.2, 37° C.). After 0.5, 3 and 24 hours, the animals were killed and dissected. The tissue concentrations were determined after corresponding working-up (HNO3 conc.) by ICP-AES and calculated for % of the administered dose per gram of tissue net weight. Moreover, tissue relaxation times T1 and T2 were determined (Bruker minispec pc 120).
9 nude mice (Balb/c nu/nu) with subcutaneously implanted colon cancers (HT29, WiDr) were each administered by i.v. 0.1 mmol/kg of the mesoporphyrin derivative of example 8e (10 mmol/l dissolved in bidistilled water, pH 7.2, 37° C.). After 0.5, 3 and 24 hours, the animals were killed and dissected. The tissue concentrations were determined after corresponding working-up (HNO3 conc.) by ICP-AES and calculated for % of the administered dose per gram of tissue net weight.
9 nude mice (Balb/c nu/nu) with subcutaneously implanted colon cancers (HT29, WiDr) were each administered by i.v. 0.1. mmol/kg of the mesoporphyrin derivative of example 16f (10 mmol/l dissolved in bidistilled water, pH 7.2, 37° C.). After 0.5 and 3 hours the animals were killed and dissected. The tissue concentrations were determined after corresponding working-up (HNO3 conc.) by ICP-AES and calculated for % of the administered dose per gram of tissue net weight.
9 nude mice (Balb/c nu/nu) with subcutaneously implanted colon cancers (HT29, WiDr) were each administered by i.v. 0.1 mmol/kg of the mesoporphyrin derivative of example 18d (10 mmol/l dissolved in bidistilled water, pH 7.2, 37° C.). After 0.5 and 3 hours, the animals were killed and dissected. The tissue concentrations were determined after corresponding working-up (HNO3 conc.) by ICP-AES and calculated for % of the administered dose per gram of tissue net weight.
9 nude mice (Balb/c nu/nu) with subcutaneously implanted colon cancers (HT29, WiDr) were each administered by i.v. 0.1 mmol/kg of the mesoporphyrin derivative of example 19e (10 mmol/l dissolved in bidistilled water, pH 7.2, 37° C.). After 0.5, 3 and 24 hours, the animals were killed and dissected. The tissue concentrations were determined after corresponding working-up (HNO3 conc.) by ICP-AES and calculated for % of the administered dose per gram of tissue net weight.

Regarding “N,N'-Bis[9-carboxylato-2,5,8-tris(carboxylatomethyl)-2,5,8-triazanonyl-carbamoyl]-mesoporphyrin-IX-13,17-diamide, digadolinium complex, disodium salt [Example 1c]”, the “tissue concentration, kidneys” value is on record as 4.06 ± 1.01 % of the administered dose per gram of tissue net weight (0.5 hour p.i.), 4.47 ± 1.63 % of the administered dose per gram of tissue net weight (3 hours p.i.) and 4.20 ± 0.27 % of the administered dose per gram of tissue net weight (24 hours p.i.).
